# Target: T1, P2Y12 receptor (Homo sapiens, UniProt Q9H244)
# T1 construct: expressed in transfected cells; host or cells: CHO cells (membranes)
# Test: Functional inhibition of 2-Me-S-ADP induced P2Y12 signalling (35S-GTPγS, cell membranes from P2Y12 transfected CHO-cells)
# Format: biochemical
# Settings: EC80 concentration of agonist 2-methyl-thio-adenosine diphosphate, 30° C., 45 min
# Protocol: Functional inhibition of-the P2Y12 receptor can be measured by in vitro assays using cell membranes from P2Y12 transfected CHO-cells, the methodology is indicated below.
# (§1) Functional inhibition of 2-Me-S-ADP induced P2Y12 signalling: 5 μg of membranes were diluted in 200 μl of 200 mM NaCl, 1 mM MgCl2, 50 mM HEPES (pH 7.4), 0.01% BSA, 30μg/ml saponin and 10 μM GDP. To this was added an EC80 concentration of agonist (2-methyl-thio-adenosine diphosphate), the required concentration of test compound and 0.1 μCi ^35S-GTPγS. The reaction was allowed to proceed at 30° C. for 45 min. Samples were then transferred on to GF/B filters using a cell harvester and washed with wash buffer (50 mM Tris (pH 7.4), 5 mM MgCl2, 50 mM NaCl). Filters were then covered with scintilant and counted for the amount of ^35S-GTPγS retained by the filter. Maximum activity was that determined in the presence of the agonist and minimum activity in the absence of the agonist following subtraction of the value determined for non-specific activity. The effect of compounds at various concentrations was plotted according to the equation
# y=A+((B−A)/(1+((C/x)̂D)))
# and IC50 estimated where • A is the bottom plateau of the curve i.e. the final minimum y value • B is the top of the plateau of the curve i.e. the final maximum y value • C is the x value at the middle of the curve. This represents the log EC50 value when A+B=100 • D is the slope factor. • x is the original known x values. • Y is the original known y values.
# as §1, with “30 μg/ml” for “30μg/ml”, “0. 1” for “0.1”
# T1 sequence (Q9H244 whole entry): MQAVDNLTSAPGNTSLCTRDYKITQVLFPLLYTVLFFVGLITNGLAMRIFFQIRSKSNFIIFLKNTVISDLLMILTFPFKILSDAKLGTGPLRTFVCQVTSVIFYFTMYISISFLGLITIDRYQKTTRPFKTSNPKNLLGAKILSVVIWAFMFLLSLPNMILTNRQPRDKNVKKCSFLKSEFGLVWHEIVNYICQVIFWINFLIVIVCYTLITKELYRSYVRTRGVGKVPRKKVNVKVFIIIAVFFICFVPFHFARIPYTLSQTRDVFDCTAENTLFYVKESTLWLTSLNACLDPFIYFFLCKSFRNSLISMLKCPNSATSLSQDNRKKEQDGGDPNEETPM
row,IC50 [µM],Compound
1,0.006,"CCOC(=O)c1cc(C#N)c(N2CCC(C(=O)NS(=O)(=O)Cc3ccccc3)CC2)nc1SCC [Example 4, Ethyl6-{4-[(benzylsulfonyl)carbamoyl]piperidin-1-yl}-5-cyano-2-(ethylthio)nicotinate]"
2,0.009,"CCOC(=O)c1cc(C#N)c(N2CCC(C(=O)NS(=O)(=O)Cc3ccc(F)cc3)CC2)nc1OC [Example 11, Ethyl5-cyano-6-(4-{[(4-fluorobenzyl)sulfonyl]carbamoyl}piperidin-1-yl)-2-methoxynicotinate]"
3,0.006,"CCOC(=O)c1cc(C#N)c(N2CC(C(=O)NS(=O)(=O)Cc3ccc(Cl)cc3)C2)nc1OC [Example 25, Ethyl6-(3-{[(4-chlorobenzyl)sulfonyl]carbamoyl}azetidin-1-yl)-5-cyano-2-methoxynicotinate]"
4,0.069,"CCOCc1nc(N2CC(C(=O)NS(=O)(=O)Cc3ccccc3)C2)c(C#N)cc1C(=O)OCC [Example 33, Ethyl6-{3-[(benzylsulfonyl)carbamoyl]azetidin-1-yl}-5-cyano-2-(ethoxymethyl)nicotinate]"
5,0.01,"CCOC(=O)c1cc(C#N)c(N2CCC(C(=O)NS(=O)(=O)Cc3ccccc3F)CC2)nc1OC [Example 8, Ethyl5-cyano-6-(4-{[(2-fluorobenzyl)sulfonyl]carbamoyl}piperidin-1-yl)-2-methoxynicotinate]"
6,0.025,"COc1nc(N2CCC(C(=O)NS(=O)(=O)Cc3ccc(F)cc3)CC2)c(C#N)cc1C(=O)OC(C)C [Example 56, Isopropyl5-cyano-6-(4-{[(4-fluorobenzyl)sulfonyl]carbamoyl}piperidin-1-yl)-2-methoxynicotinate]"
7,0.016,"CC(C)OC(=O)c1cc(C#N)c(N2CCC(C(=O)NS(=O)(=O)Cc3ccccc3)CC2)nc1C#N [Example 50, Isopropyl6-{4-[(benzylsulfonyl)carbamoyl]piperidin-1-yl}-2,5-dicyanonicotinate]"
8,0.01,"CCOC(=O)c1cc(C#N)c(N2CCC(C(=O)NS(=O)(=O)Cc3ccc(Cl)cc3F)CC2)nc1OC [Example 18, Ethyl6-(4-{[(4-chloro-2-fluorobenzyl)sulfonyl]carbamoyl}piperidin-1-yl)-5-cyano-2-methoxynicotinate]"
9,0.033,"CCOC(=O)c1cc(Cl)c(N2CCC(C(=O)NS(=O)(=O)Cc3ccccc3)CC2)nc1Cl [Example 59, Ethyl6-{4-[(benzylsulfonyl)carbamoyl]piperidin-1-yl}-2,5-dichloronicotinate]"
10,0.008,"CCOC(=O)c1cc(C#N)c(N2CCC(C(=O)NS(=O)(=O)Cc3ccc(F)cc3F)CC2)nc1OC [Example 16, Ethyl5-cyano-6-(4-{[(2,4-difluorobenzyl)sulfonyl]carbamoyl}piperidin-1-yl)-2-methoxynicotinate]"
11,0.011,"COc1nc(N2CCC(C(=O)NS(=O)(=O)Cc3ccc(Cl)cc3)CC2)c(C#N)cc1C(=O)OC(C)C [Example 55, Isopropyl6-(4-{[(4-chlorobenzyl)sulfonyl]carbamoyl}piperidin-1-yl)-5-cyano-2-methoxynicotinate]"
12,0.032,"CCOC(=O)c1cc(C#N)c(N2CC(C(=O)NS(=O)(=O)Cc3ccc(F)cc3)C2)nc1OCC [Example 39, Ethyl5-cyano-2-ethoxy-6-(3-{[(4-fluorobenzyl)sulfonyl]carbamoyl}azetidin-1-yl)nicotinate]"
13,0.044,"CCOC(=O)c1cc(C#N)c(N2CC(C(=O)NS(=O)(=O)Cc3cccc(F)c3)C2)nc1OC [Example 23, Ethyl5-cyano-6-(3-{[(3-fluorobenzyl)sulfonyl]carbamoyl}azetidin-1-yl)-2-methoxynicotinate]"
14,0.055,"CCOC(=O)c1cc(C#N)c(N2CCC(C(=O)NS(=O)(=O)Cc3ccccc3)CC2)nc1COCc1ccccc1 [Example 36, Ethyl2-[(benzyloxy)methyl]-6-{4-[(benzylsulfonyl)carbamoyl]piperidin-1-yl}-5-cyanonicotinate]"
15,0.009,"CCOC(=O)c1cc(C#N)c(N2CC(C(=O)NS(=O)(=O)Cc3ccc(F)cc3)C2)nc1OC [Example 24, Ethyl5-cyano-6-(3-{[(4-fluorobenzyl)sulfonyl]carbamoyl}azetidin-1-yl)-2-methoxynicotinate]"
16,0.01,"CCOC(=O)c1cc(C#N)c(N2CC(C(=O)NS(=O)(=O)Cc3ccc(F)cc3F)C2)nc1OC [Example 29, Ethyl5-cyano-6-(3-{[(2,4-difluorobenzyl)sulfonyl]carbamoyl}azetidin-1-yl)-2-methoxynicotinate]"
17,0.087,"CCOC(=O)c1cc(C#N)c(N2CC(C(=O)NS(=O)(=O)Cc3ccc(F)cc3F)C2)nc1OCC [Example 41, Ethyl5-cyano-6-(3-{[(2,4-difluorobenzyl)sulfonyl]carbamoyl}azetidin-1-yl)-2-ethoxynicotinate]"
18,0.06,"CCOC(=O)c1cc(C#N)c(N2CCC(C(=O)NS(=O)(=O)Cc3ccccc3)CC2)nc1CCOC [Example 45, Ethyl6-{4-[(benzylsulfonyl)carbamoyl]piperidin-1-yl}-5-cyano-2-(2-methoxyethyl)nicotinate]"
19,0.012,"CCOC(=O)c1cc(C#N)c(N2CC(C(=O)NS(=O)(=O)Cc3ccccc3Cl)C2)nc1OC [Example 22, Ethyl6-(3-{[(2-chlorobenzyl)sulfonyl]carbamoyl}azetidin-1-yl)-5-cyano-2-methoxynicotinate]"
20,0.039,"CCOC(=O)c1cc(Cl)c(N2CCC(C(=O)NS(=O)(=O)Cc3ccccc3)CC2)nc1SC [Example 54, Ethyl6-{4-[(benzylsulfonyl)carbamoyl]piperidin-1-yl}-5-chloro-2-(methylthio)nicotinate]"
21,0.042,"CCOC(=O)c1cc(F)c(N2CCC(C(=O)NS(=O)(=O)Cc3ccccc3)CC2)nc1SC [Example 44, Ethyl6-{4-[(benzylsulfonyl)carbamoyl]piperidin-1-yl}-5-fluoro-2-(methylthio)nicotinate]"
22,0.018,"CCOC(=O)c1cc(C#N)c(N2CC(C(=O)NS(=O)(=O)Cc3ccccc3)C2)nc1OC [Example 2, Ethyl6-{3-[(benzylsulfonyl)carbamoyl]azetidin-1-yl}-5-cyano-2-methoxynicotinate]"
23,0.05,"CCCC(=O)c1cc(C#N)c(N2CCC(C(=O)NS(=O)(=O)Cc3ccc(F)cc3)CC2)nc1OC [Example 51, 1-(5-Butyryl-3-cyano-6-methoxypyridin-2-yl)-N-[(4-fluorobenzyl)sulfonyl]piperidine-4-carboxamide]"
24,0.032,"CCOC(=O)c1cc(C#N)c(N2CCC(C(=O)NS(=O)(=O)Cc3ccccc3Cl)CC2)nc1OC [Example 9, Ethyl6-(4-{[(2-chlorobenzyl)sulfonyl]carbamoyl}piperidin-1-yl)-5-cyano-2-methoxynicotinate]"
25,0.047,"CCOC(=O)c1cc(C#N)c(N2CC(C(=O)NS(=O)(=O)Cc3ccccc3)C2)nc1OCC [Example 38, Ethyl6-{3-[(benzylsulfonyl)carbamoyl]azetidin-1-yl}-5-cyano-2-ethoxynicotinate]"
26,0.005,"CCOC(=O)c1cc(C#N)c(N2CC(C(=O)NS(=O)(=O)Cc3ccc(Cl)cc3F)C2)nc1OC [Example 31, Ethyl6-(3-{[(4-chloro-2-fluorobenzyl)sulfonyl]carbamoyl}azetidin-1-yl)-5-cyano-2-methoxynicotinate]"
27,0.055,"CCCC(=O)c1cc(C#N)c(N2CCC(C(=O)NS(=O)(=O)Cc3ccc(Cl)cc3)CC2)nc1OC [Example 52, 1-(5-Butyryl-3-cyano-6-methoxypyridin-2-yl)-N-[(4-chlorobenzyl)sulfonyl]piperidine-4-carboxamide]"
